A short description of series [1]: Photophysical properties (absorption, emission, extinction coefficient, quantum yield). It is filed as physicochemical. The text has this:
n-Butyllithium in hexanes was purchased from Acros and titrated with diphenylacetic acid, which was recrystallized from toluene. All other reagents were purchased from Sigma Aldrich and used without further purification. Solvents were purchased from either Sigma Aldrich or Fisher Scientific. Anhydrous solvents were purchased from Fisher Scientific and dried by passing through an alumina column of a solvent purification system. Silica gel (230-400 mesh) used for column chromatography was purchased from Silicycle. Thin layer chromatography plates (250 μm thickness) were purchased from Sorbent Technologies. Revered-phase column chromatography was done using a RediSep Rf Gold C18 column on a Teledyne Isco CombiFlash Rf system. High-performance liquid chromatography (HPLC) was performed on a Jasco HPLC system using a Phenomenex column (Luna 5u C18(2) 100A; 250×4.60 mm, 5 micron). UV absorption spectra were obtained on a Jasco V-650 spectrophotometer using a 1 cm path length quartz cuvette. Fluorescence emission spectra were taken on a Horiba Jobin-Yvon FluoroLog using a 1 cm path length fluorescence quartz cuvette. ^1H-NMR and ^13C-NMR were recorded on either a Bruker DMX 500 (500 MHz) or a Bruker AVII 500 (500 MHz). High-resolution mass spectrometry was performed using a Waters LCT Premier XE Mass Spectrometer (model KE 332). […] was performed using a Bruker APEX2-DUO CCD X-ray Diffractometer. Photoreactions were carried out in a Rayonet Photochemical Reactor (model RPR-100). Quantum yield was determined by serial dilution method using coumarine 153 (in ethanol, Φ=0.38) and fluorescein (in NaOH 0.1 M, Φ=0.95) as standards (Yvon, A guide to recording Fluorescence Quantum Yields, http://www.horiba.com/fileadmin/uploads/Scientific/Documents/Fluorescence/quantumyie ldstrad.pdf, accessed Jul. 13, 2014; Brouwer, 2011, Pure Appl. Chem. 83: 2213-2228)

In series [2] the test system is mito-GFP cell line (GFP localized to the outer mitochondria membrane). The experiment in a line: Colocalization with GFP-labeled mitochondria in mito-GFP HeLa cells. It is filed as cell-based. The procedure:
For live cell imaging, HeLa cells and HeLa cells expressing a mitochondrial outer membrane targeting domain from Listeria monocytogenes (ActA, C-terminal 47 amino acids) fused to a HaloTag-GFP construct (Ballister et al., 2014, Nat. Commun. 5: 4575) were used. Cells were cultured in a 60 mm culture dish using Life Technologies Dulbecco's Modified Eagle Medium (DMEM) media with phenol red, 10% Fetal Bovine Serum and 1% penicillin-streptomycin at 37° C. in a humidified atmosphere with 5% CO2. The cells were detached with 0.05% trypsin-EDTA and transferred to a 35 mm glass bottom poly-D-lysine coated dish 2-5 days before imaging with about 2 mL of the above-mentioned media. A 5 mM solution of 11-E/11-Z in MiliQ water and a 1 mM solution of MitoTracker Red FM in DMSO were prepared. Two microliter of each solution was mixed with 2 mL new media and added to the cells after the old media was removed. After incubation (3 hours to overnight for 11-E/11-Z and 1 hour for MitoTracker Red FM), the excess dyes were washed twice with non-phenol red DMEM before imaging. The cells were kept in 2 mL non-phenol red DMEM during imaging.
A Leica TCS SP8 confocal microscope equipped with a 63×/1.4 NA oil immersion objective lens was used in FIG. 2A, 3E, S2, S3, and S4. To selectively observe 11-E/11-Z, the excitation wavelength of 405 nm and the emission wavelength range of 620-650 were used. To selectively observe MitoTracker Red FM, the excitation wavelength of 638 nm and the emission wavelength range of 650-700 were used. To selectively observe GFP, the excitation wavelength of 488 nm and the emission wavelength range of 500-550 were used.
Photoproduct 12 is red-shifted in both absorbance and emission by approximately 100 nm while retaining a large Stokes shift of 108 nm (FIG. 44C). […]
Incubating mito-GFP cells with 11-E/11-Z allowed colocalization to be assessed (FIGS. 45A and 54).

For series [3], the system named is HeLa cells. As to the kind of experiment: Intracellular photoactivation of 11-E/11-Z to 12 in live HeLa cells. Format: cell-based. The conditions noted are these: 200 alternating 150 ms pulses, one phase exponential fit. The text has this: A Leica DM4000 spinning disk confocal microscope equipped with a 100×1.4 NA oil immersion objective was used in FIGS. 3A and 3B. In FIG. 3A, two channels were used. The first channel has 444 nm excitation wavelength and 525 nm emission wavelength (emission bandpass filter, bandwidth=36 nm). The second channel has 488 nm excitation wavelength and 632 nm emission wavelength (emission bandpass filter, bandwidth=60 nm). The two channels were used alternatingly to carry out 200 150-ms pulses. In FIG. 46B, selective activation was carried out by short pulse (about 1 second) using a 405 nm laser (CrystaLaser, DL405-050-O) controlled by the iLas2 module in Metamorph. All image processing was done using ImageJ. All curve fitting was done using Prism.
By combining the observed photoreaction (FIG. 44A) and the ability to selectively label mitochondria for live cell imaging (FIG. 45A), intracellular photoactivation of 11-E/11-Z was attempted. The roughly 100 nm red-shifted absorbance and emission spectra of 12 compared to 11-E/11-Z allowed for selective excitation of individual species. […] A significant increase in the intensity of […] was achieved after 30 seconds, using 200 total scans (FIG. 46A, 46B). […] Immediately after the first activation, a bright signal was detected at the targeted region (box 1). […]

The nature of series [4]: Stability of aqueous solution under ambient light (HPLC). The conditions noted are these: 1 mM in water, 25° C., 10 days. It is filed as physicochemical. The method, then: The stability of 1 mM aqueous solution of 11-E/11-Z was assessed under ambient light conditions at 25° C. for 10 days. […] HPLC chromatograms of compounds 11-E/11-Z and 12 can be seen in FIGS. 57 and 58.

Series [5] relates to HeLa cells. As to the kind of experiment: Cytotoxicity studies, Alamar Blue cell viability. The conditions noted are these: HeLa cells, 24, 48, and 72 hours; 5 μM 11-E/11-Z, 1 μM MitoTracker Red FM. Format: cell-based. The method, then:
In a 96-well plate, HeLa cells were plated at 5,000 cells/well in culture media as described above (50 μL/well) and incubated at 37° C. in a humidified atmosphere with 5% CO2. After 24 hours, cells were treated with 11-E/11-Z (final concentration was 5 μM), MitoTracker Red FM (final concentration was 1 μM), and DMSO (vehicle control for MitoTracker). For wells treated with MitoTracker and DMSO, DMSO concentration was kept at 1%. Untreated cells were used as vehicle control for 11-E/11-Z. Final volumes were 100 μL/well. Cells were incubated at 37° C. in 5% CO2 for 24, 48, or 72 hours. Alamar Blue (10 μL) was added 2 hours prior to fluorescence measurement. Fluorescence was measured at 560 nm excitation and 590 nm emission. Vehicle control was taken as 100% cell viability.
Background: The colour change of resazurin is a common sign of viable cells or microbes.

In series [6] the test system is HeLa cells. The experiment in a line: Confocal microscopy of stained live HeLa cells (subcellular localization, cell permeability). The conditions noted are these: confocal microscopy.
Description: Confocal microscopy was done on a Yokogawa spinning disk inverted microscope with a 100× lens. Each batch of stained cells was imaged by exciting with a 488 nm laser while observing at 503-545 nm (the green overlay images), exciting with a 561 nm laser while observing at 583-650 nm (the red overlay images), and by DIC (the grey images) (FIG. 8).
A 444 nm excitation was required to image with compounds 2 and 3 (FIG. 18).

Data on 1 compound can be found in patent US10487089B2, “Imaging agents and methods of identifying same” (The Trustees of the University of Pennsylvania, priority 2014, dated 2019).

Each structure is given as a SMILES string. Entries after “also recorded” stand apart in the source; their conditions may differ.

Turning to `C[n+]1cccc2c1/C(=C1\c3ccccc3Oc3cccnc31)c1ccccc1O2` (racemic) [11-E/11-Z], in series [1], the Stokes shift came to 135 nm. For the same compound, in series [1] (in water), the “Abs λmax” value came out at 408 nm and the “Em λmax” value is 543 nm. For the same compound, in series [1] (solvent: water), the “extinction coefficient ε” value was 11040 M⁻¹ cm⁻¹ and the “quantum yield Φ” value is listed as 0.021. Besides, in series [2], the “Manders' overlap coefficient (first)” value is recorded as 0.98±0.01 and the “Manders' overlap coefficient (second)” value is listed as 1.00±0.00. Moreover, the “Spearman correlation with GFP” value in series [2] (80 cells) is 0.88±0.02. In series [3], the “rate constant, 444/525 channel” value is 0.060 s⁻¹ and the “rate constant, 488/632 channel” value is 0.030 s⁻¹. For the same compound, the “stability of aqueous solution under ambient light” value in series [4] is listed as “No decomposition or photoproduct; also recorded: no evidence for decomposition or photoconversion”. Besides, in series [5], the cytotoxicity entry is recorded as “very low cytotoxicity”. The “staining specificity / subcellular localization” value in series [6] is given as “consistent with mitochondrial uptake; also recorded: near exclusive mitochondrial localization”.
